Each structure is given as a SMILES string. “And” between values parts separate entries of the source, which are not always exact repeats. Equal entries are not always repeated. Where two headings read alike, the source gives them in different places.

Assay [1] concerns the target T1, AChE from electric eel (Electrophorus electricus, UniProt O42275).
T1 construct: purchased Sigma-Aldrich Co., St. Louis, USA
The assay can be described thus: biochemical. Format: biochemical. As for the experimental part: (§1) The AChE- and BChE-inhibitory, MTT, and Th T assays were analyzed using a UV–visible (VIS) spectrophotometer (Biotek, EPOCH2, Winooski, VT, USA), ensuring accurate measurements. For BACE1- and MAO-B-inhibitory assays, a multimode microplate reader (SpectraMax M3, Molecular Devices, San Jose, CA, USA) was employed, providing precise readings. Analytical-grade DMSO from DEAJUNG Chemical, Korea, served as a solvent in the bioassays. Reagents and solvents, including AChE from electric eel, acetylthiocholine iodide (ATCh), BChE from equine serum, S-butyrylthiocholine iodide (BTCh), 5,5′-dithiobis [2-nitrobenzoic acid] […] Additionally, the BACE1-inhibitory assay utilized the BACE1 (β-secretase) FRET assay kit from PanVera® Corporation, Madison, USA, while the MAO-B-inhibitory assay employed the MAO-B Inhibitor Screening Kit (Fluorometric) ab284511 from Abcam plc Co., Cambridge, UK.
(§2) The inhibitory activities against cholinesterases (AChE and BChE) were evaluated using a spectrophotometric method previously developed by Ellman et al.. Specifically, ATCh and BTCh were used as substrates to measure the inhibitory effects on AChE and BChE, respectively. The assay mixture consisted of 140 μL of 0.1 M sodium phosphate buffer at pH 7.8, 20 μL of a 0.38 U/mL solution of either AChE or BChE, and 20 μL of the test sample solution. This mixture was thoroughly mixed and then incubated at room temperature for 15 min. […] Reactions were initiated by adding 10 μL of 0.5 mM DTNB and 10 μL of either 0.6 mM ATCh or BTCh. ChE-inhibitory activity was monitored by measuring the formation of the yellow 5-thio-2-nitrobenzoate anion at 412 nm over 15 min (Epoch, BioTek, Winooski, VT, USA), resulting from the reaction of DTNB and thiocholine released from ATCh or BTCh. All reactions were conducted in 96-well microplates and performed in triplicate. The percentage of inhibition (%) was determined using the following formula: inhibition (%)={(Ac−As)/Ac}×100 , where Ac represents the enzyme activity in the absence of the test sample, and As represents the enzyme activity in the presence of the test sample. The ChE-inhibitory activities of each sample were quantified in terms of IC50, which was calculated from the log–dose inhibition curve.

Assay [2] concerns the target T2, MAO-B (Homo sapiens, UniProt P27338).
T2 construct: purchased Abcam plc, Cambridge, UK ab284511
T2 sequence (P27338 1-520): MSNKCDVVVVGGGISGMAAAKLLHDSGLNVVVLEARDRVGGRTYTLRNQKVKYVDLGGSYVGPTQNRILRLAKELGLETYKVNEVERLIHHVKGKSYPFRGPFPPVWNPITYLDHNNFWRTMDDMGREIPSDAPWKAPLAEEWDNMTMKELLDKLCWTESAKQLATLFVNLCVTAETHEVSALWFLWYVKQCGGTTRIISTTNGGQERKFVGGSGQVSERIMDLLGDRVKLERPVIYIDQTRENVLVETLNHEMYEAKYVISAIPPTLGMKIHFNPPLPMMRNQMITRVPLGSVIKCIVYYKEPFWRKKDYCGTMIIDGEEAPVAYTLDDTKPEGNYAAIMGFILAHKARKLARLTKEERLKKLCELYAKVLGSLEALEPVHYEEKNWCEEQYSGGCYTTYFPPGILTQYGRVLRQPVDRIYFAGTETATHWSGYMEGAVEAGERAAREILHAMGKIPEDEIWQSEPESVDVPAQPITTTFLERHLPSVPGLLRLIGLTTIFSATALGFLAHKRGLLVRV
As to the kind of experiment: MAO-B inhibitor screening kit (fluorometric) assay. As to conditions: isolated compounds; mean ± SD, n = 3; ND = no detection using test concentration. Format: biochemical. As for the experimental part: The MAO-B-inhibition assay was conducted using the MAO-B Inhibitor Screening Kit (Fluorometric) ab284511 (Abcam plc, Cambridge, UK), following the manufacturer’s recommended protocol with minor modifications. The enzyme solution (50 µL) and the test sample (10 µL) were adjusted as per the manual instructions. […] After mixing, samples and enzymes were incubated at 25 °C for 10 min. Subsequently, 40 μL of MAO-B substrate (comprising MAO-B assay buffer, MAO substrate, developer, and OxiRed probe) was added, followed by further incubation at 25 °C for 5 min. Fluorescence was measured using enzyme-linked immunosorbent assay within 40 min with dynamic fluorescence (Ex/Em = 535/587 nm). All reactions were recorded in black 96-well microplates and performed in triplicate. The slope for all samples, including the enzyme control (EC), was calculated by dividing the net ΔRFU (RFU2–RFU1) values by the time Δt (T2 − T1). The % relative inhibition was computed as follows: % relative inhibition=(slope of EC−slope of S)/slope of EC×100 . The MAO-B-inhibitory activities of each sample were quantified in terms of IC50, as determined from the log–dose inhibition curve.

Assay [3] addresses T3, BChE from equine serum (Equus caballus, UniProt P81908).
T3 construct: BChE from equine serum; purchased Sigma-Aldrich Co., St. Louis, USA; host or cells: equine serum
The assay can be described thus: biochemical. Type of assay: biochemical. As for the experimental part:
as §1, §2

The target of assay [4] is T4, BACE1 (Homo sapiens, UniProt P56817).
T4 construct: purchased PanVera Corporation, Madison, WI, USA P2985
T4 sequence (P56817 46-501): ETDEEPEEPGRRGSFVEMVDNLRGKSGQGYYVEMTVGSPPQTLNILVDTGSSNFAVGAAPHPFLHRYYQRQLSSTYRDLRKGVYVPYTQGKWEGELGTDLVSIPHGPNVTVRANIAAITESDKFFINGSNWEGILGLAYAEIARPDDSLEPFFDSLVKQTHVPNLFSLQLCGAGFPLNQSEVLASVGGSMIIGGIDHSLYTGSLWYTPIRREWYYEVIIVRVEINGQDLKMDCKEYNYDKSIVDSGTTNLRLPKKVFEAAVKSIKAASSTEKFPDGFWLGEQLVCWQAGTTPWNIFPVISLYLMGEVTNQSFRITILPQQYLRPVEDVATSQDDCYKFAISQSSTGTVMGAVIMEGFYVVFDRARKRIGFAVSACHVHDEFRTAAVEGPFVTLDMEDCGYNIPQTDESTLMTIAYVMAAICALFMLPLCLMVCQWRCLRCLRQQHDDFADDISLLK
As to the kind of experiment: BACE1 (β-secretase) FRET inhibitory assay. Type of assay: biochemical. As for the experimental part:
The BACE1 inhibition assay was conducted using the BACE1 (β-secretase) FRET Assay Kit, Red Protocol, part number P2985 (PanVera® Corporation, Madison, WI, USA), following the manufacturer’s recommended protocol with minor modifications. The assay mixture consisted of 10 μL of BACE1 (1.0 U/mL), 10 μL of substrate (750 nM Rh-[…]-Quencher in 50 mM ammonium bicarbonate), the assay buffer (50 mM sodium acetate, pH 4.5), and 10 μL of the test samples. […] The reaction mixture was incubated for 60 min at room temperature in darkness. Before measurement, a stop solution (2.5 M sodium acetate) was added to halt the reaction. BACE1 enzyme activity was assessed by monitoring the proteolysis of two fluorophores (Rh-[…]-Quencher), forming the fluorescent donor (Rh-EVNL) with increased fluorescence wavelengths at 530–545 nm (excitation) and 570–590 nm (emission), respectively. All reactions were recorded in black 96-well microplates and performed in triplicate. The percentage of inhibition (%) was calculated using the following formula: inhibition (%)=[1−(S60−S0)/(C60−C0)]×100 , where C60 represents the fluorescence of the control after incubation, C0 represents the initial fluorescence of the control, S60 represents the fluorescence of the tested sample after incubation, and S0 represents the initial fluorescence of the tested sample. The BACE1-inhibitory activities of each sample were quantified in terms of IC50, which was determined from the log–dose inhibition curve.

Assay [5] deals with cultured cortical neurons. Details: method as in PMID 26299900. The note with it: cited from earlier work.
Assay [6] has as its system sAPPβ. The assay can be described thus: Western blot of sAPPβ levels in APP-CHO cells. Type of assay: cell-based, Chinese hamster. As to conditions: 24 h; for reduction of sAPPβ levels compared to DMSO-treated controls: 1.0 μM. As for the experimental part:
(§3) APP-CHO cells were seeded in six-well plates at a density of 6 × 10^5 cells/1000 μL of medium per well and incubated at 37 °C overnight for cell attachment. Then, the medium was replaced with FBS-free RPMI 1640 for 1 h, followed by treatment with test samples at 37 °C. After 24 h, the cells were washed with PBS and lysed in Laemmli sample buffer. The collected cell lysates were boiled at 100 °C for 10 min. For Western blot analysis, 20 μg of proteins were separated by 7.5% SDS-PAGE and transferred to a PVDF membrane using Trans-Blot® Turbo TM (Bio-Rad, Hercules, CA, USA). The membrane was blocked with 5% skim milk in PBS for 1 h and incubated with primary antibodies overnight at 4 °C. The primary antibodies used were sAPPβ antibody, BACE1 antibody, and α-tubulin antibody diluted at 1:1000, 1:1000, and 1:25,000, respectively. After washing with PBS-T (0.1% Tween 20 in PBS) three times for 10 min each, secondary antibodies, diluted to 1:2500, were incubated for 1 h. Protein detection was performed using ECL solution reagent and protein visualization (ChemiDoc^TM XRS+., Bio-Rad, Hercules, CA, USA). The signal intensity of the bands was quantified and normalized to the signal intensity of the α-tubulin band. Results were expressed as a percentage of DMSO-treated control.
For orientation: A western blot detects proteins with antibodies after separation by electrophoresis.

The test system of assay [7] is β-secretase. As to the kind of experiment: Western blot of β-secretase levels in APP-CHO cells. As to conditions: 24 h; for reduction of β-secretase levels compared to DMSO-treated controls: 1.0 μM. Format: cell-based, Chinese hamster. As for the experimental part: as §3
[8] abbreviates: isolated compounds, mean ± SD, n = 3, ND = no detection using test concentration, read-out: IC50 BChE.
Where [9] appears, read: isolated compounds, mean ± SD, n = 3, ND = no detection using test concentration, read-out: IC50 AChE.
[10] abbreviates: isolated compounds, mean ± SD, n = 3, read-out: IC50 BACE1.
Where [11] appears, read: isolated compounds, mean ± SD, n = 3, ND = no detection using test concentration.

T3 sequence (P81908 whole entry): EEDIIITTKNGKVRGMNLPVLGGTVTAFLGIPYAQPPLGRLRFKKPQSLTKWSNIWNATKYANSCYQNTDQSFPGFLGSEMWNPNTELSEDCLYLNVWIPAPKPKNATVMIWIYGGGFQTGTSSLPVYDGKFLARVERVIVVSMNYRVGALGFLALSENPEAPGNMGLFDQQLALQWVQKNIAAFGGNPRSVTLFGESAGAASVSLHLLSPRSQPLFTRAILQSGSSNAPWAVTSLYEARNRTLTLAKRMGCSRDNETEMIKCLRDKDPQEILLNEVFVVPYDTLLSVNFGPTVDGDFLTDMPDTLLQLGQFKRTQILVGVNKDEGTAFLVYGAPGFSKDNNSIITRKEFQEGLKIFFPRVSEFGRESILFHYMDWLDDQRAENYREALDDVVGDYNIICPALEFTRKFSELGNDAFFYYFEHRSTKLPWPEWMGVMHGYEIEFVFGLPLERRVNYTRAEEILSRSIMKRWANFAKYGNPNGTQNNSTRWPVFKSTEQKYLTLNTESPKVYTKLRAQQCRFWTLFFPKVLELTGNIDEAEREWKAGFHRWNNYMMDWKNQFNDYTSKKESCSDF
T1 sequence (O42275 24-633): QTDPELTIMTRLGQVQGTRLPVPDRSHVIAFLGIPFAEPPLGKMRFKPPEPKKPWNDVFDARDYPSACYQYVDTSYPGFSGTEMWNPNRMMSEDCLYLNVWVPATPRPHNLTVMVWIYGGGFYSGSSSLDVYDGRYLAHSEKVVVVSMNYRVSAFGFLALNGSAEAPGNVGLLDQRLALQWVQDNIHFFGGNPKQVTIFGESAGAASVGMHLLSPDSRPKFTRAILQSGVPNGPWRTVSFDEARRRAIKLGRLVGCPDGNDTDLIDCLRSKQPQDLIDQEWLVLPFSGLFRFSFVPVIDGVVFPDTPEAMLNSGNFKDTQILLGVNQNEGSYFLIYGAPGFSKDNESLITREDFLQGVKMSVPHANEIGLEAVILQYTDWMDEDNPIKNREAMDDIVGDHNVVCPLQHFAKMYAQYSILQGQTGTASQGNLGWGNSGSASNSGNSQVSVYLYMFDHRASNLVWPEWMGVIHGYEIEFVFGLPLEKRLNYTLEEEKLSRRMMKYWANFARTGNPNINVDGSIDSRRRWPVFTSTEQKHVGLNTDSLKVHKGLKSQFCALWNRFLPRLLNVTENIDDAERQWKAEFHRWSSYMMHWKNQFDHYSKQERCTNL

In general, IC50 refers to the midpoint of a concentration-inhibition curve. `COc1ccc2cc3[n+](cc2c1OC)CCc1cc2c(cc1-3)OCO2` [Berberine, berberine, reference compound] had an IC50 in assay [1] of 0.119 µM.
Take `O=C(O)/C=C/c1ccc(O[C@@H]2O[C@H](CO)[C@@H](O)[C@H](O)[C@H]2O)cc1` [Compound 1, coumaric acid 4-O-β-D-glucopyranoside]: the IC50 in assay [2] is above 1000 µM; in assay [3] (setting [8]), 53.8 ± 1.15 µM; in assay [1] (setting [9]) it was 33.4 ± 0.42 µM; in assay [4] (setting [10]), above 1000 µM.
Take `O=C(O)/C=C/c1ccc(O[C@@H]2O[C@H](CO)[C@@H](O)[C@H](O)[C@H]2O)c(O)c1` [Compound 2, caffeic acid 4-O-β-D-glucopyranoside]: the “axonal regrowth effect on Aβ25–35-induced atrophy” value in assay [5] (10 μM) was “significant axonal regrowth effects”. Further, the IC50 in assay [2] came out at 401.3 ± 2.66 µM; in assay [3] (setting [8]), 488 ± 10.1 µM; in assay [1] (setting [9]), 14.77 ± 0.07 µM; in assay [4] (setting [10]), 45 ± 0.48 µM. In addition, the “reduction of sAPPβ expression levels” value in assay [6] (0.5 μM) is listed as 50%. Besides, in assay [7] (0.5 μM), the “reduction of β-secretase expression levels” value amounted to 40%.
As to `COc1cc(/C=C/C(=O)O)ccc1O[C@@H]1O[C@H](CO)[C@@H](O)[C@H](O)[C@H]1O` [Compound 3, lavandoside], the IC50 in assay [2] amounted to 155 ± 7.18 µM; in assay [4] (setting [10]) it was 235 ± 6.86 µM. Moreover, the “IC50 BChE” value in assay [3] (setting [11]) is “did not demonstrate cholinesterase-inhibitory activity”. Also, the “IC50 AChE” value in assay [1] (setting [11]) is given as “did not demonstrate cholinesterase-inhibitory activity”.
As for `COc1cc(/C=C/C(=O)O)cc(OC)c1O[C@@H]1O[C@H](CO)[C@@H](O)[C@H](O)[C@H]1O` [Compound 4, trans-p-sinapoyl-β-D-glucopyranoside], the results for the IC50 in assay [2], in assay [3] (setting [8]) and in assay [4] (setting [10]) were 600.9 ± 3.72 µM, 30.6 ± 0.38 µM and 147.4 ± 0.74 µM, respectively.
On to `C[C@@H]1O[C@@H](O[C@H]2[C@H](Oc3cc(O)c4c(=O)ccoc4c3)O[C@H](CO)[C@@H](O)[C@@H]2O)[C@H](O)[C@H](O)[C@H]1O` [Compound 5, 5,7-dihydroxychromone-7-O-neohesperidoside], for which the IC50 in assay [3] (setting [8]) was 38.8 ± 0.71 µM; in assay [1] (setting [9]) it was above 1000 µM; in assay [4] (setting [10]) it was above 1000 µM.
As for `C[C@@H]1O[C@@H](O[C@H]2[C@H](Oc3cc(O)c4c(c3)O[C@H](c3ccc(O)c(O)c3)CC4=O)O[C@H](CO)[C@@H](O)[C@@H]2O)[C@H](O)[C@H](O)[C@H]1O` [Compound 8, neoeriocitrin], in assay [5] (1 and 10 μM), the “axonal regrowth effect on Aβ25–35-induced atrophy” value is “significant axonal regrowth effects”. Further, the concentration for half-maximal inhibition (IC50) in assay [2] turned out to be 2.64 ± 0.016 µM; in assay [3], 30.04 ± 0.23 µM; in assay [1] it was 31.65 ± 0.14 µM; in assay [4], 13.7 ± 0.14 µM.
Turning to `C[C@@H]1O[C@@H](O[C@H]2[C@H](Oc3cc(O)c4c(c3)O[C@H](c3ccc(O)cc3)CC4=O)O[C@H](CO)[C@@H](O)[C@@H]2O)[C@H](O)[C@H](O)[C@H]1O` [Compound 9, naringin], the concentration for half-maximal inhibition (IC50) worked out at 51.26 ± 0.14 µM in assay [2], 252 ± 12.3 µM in assay [3], 124 ± 35.3 µM in assay [1] and 64.95 ± 0.17 µM in assay [4] (setting [10]). The “reduction of sAPPβ levels compared to DMSO-treated controls” value in assay [6] is reported as 30%. Also, the “reduction of β-secretase levels compared to DMSO-treated controls” value in assay [7] is 40% and 30%.
`COc1ccc([C@@H]2CC(=O)c3c(O)cc(O[C@@H]4O[C@H](CO[C@@H]5O[C@@H](C)[C@H](O)[C@@H](O)[C@H]5O)[C@@H](O)[C@H](O)[C@H]4O)cc3O2)cc1O` [Compound 10, hesperidin]: the IC50 was 98.77 ± 0.14 µM in assay [2], 331.77 ± 0.14 µM in assay [3], 57.7 ± 5.96 µM in assay [1] and 55.72 ± 0.17 µM in assay [4] (setting [10]). Further, the “reduction of sAPPβ levels compared to DMSO-treated controls” value in assay [6] came out at 30%. Further, the “reduction of β-secretase levels compared to DMSO-treated controls” value in assay [7] is given as 30%.
